Data set [1] has as its system BV-2 cells. The data set can be described thus: LPS-induced NO production in BV-2 cells (Griess method). The data set is classed as cell-based, murine. The following applies: 1 μg/ml LPS, 24 h. How it is done:
BV-2 cells (murine microglia cell line) was obtained from Peking Union Medical College, Cell Bank (Beijing, China) and maintained in DMEM containing 10% FBS. Cells were grown in a humidified atmosphere of 5% CO2 incubator at 37°C.
BV2 cells were seeded and incubated overnight, and followed by treatment with different doses of circumdatins for indicated period with or without LPS (1 μg/ml) stimulation. The cells without circumdatins and LPS treatment were used as the control group.
The NO levels in culture media was determined using a Griess method. Cells were treated with different concentrations of circumdatins in the presence or absence of LPS for 24 h. After that, the supernatant fraction of the culture media was collected and mixed with the same volume of Griess reagent (1% sulfanilamide/0.1% naphthyl ethylene diamine dihydrochloride/2% H3PO4). Then, the absorbance was measured at 540 nm using a microplate spectrophotometer (Thermo Scientifics, USA). The concentration of nitrite was calculated from a calibration curve obtained from standards sodium nitrite solutions.
Background: Griess reagent forms a coloured azo dye with nitrite.

Data set [2] concerns the target Recombinant AChE (Homo sapiens, UniProt P22303). Put plainly: biochemical. The following applies: SPR, 25°C, 1:1 Langmuir binding model; read-out: AChE Affinity Kd. As for the experimental part: The experiments for surface plasmon resonance (SPR) interaction were conducted at 25°C using the Biacore T200 system (GE Healthcare, Sweden). Recombinant AChE diluted in sodium acetate buffer (100 mM, pH 4.5) was used as the stock for the following experiments. CM5 sensor chips were coupled with AChE using an amine coupling kit (GE Healthcare, Buckinghamshire, UK). Thereafter, different concentrations of compounds were injected as analytes using PBS-P (10mM phosphate buffer with 2.7 mM KCl and 137 mM NaCl, 0.05% polysorbate 20, […]) as running buffer. For binding assays, the analytes were introduced with a 60 s contact time followed by a 60 s dissociation time at a flow rate of 45 μl/min. The surface was regenerated with 10 mM glycine (pH 3.0) for 30 s. The affinity constants were calculated using the 1:1 Langmuir binding model of Biacore evaluation software (T200 Version 1.0).

For data set [3], the system named is BV-2 cells. The data set can be described thus: ELISA for TNF-α and IL-1β in LPS-induced BV-2 cells. Type of data set: cell-based, murine. The following applies: 1 μg/ml LPS, 10, 20, 50 μM, 6 h TNF-α, 8 h IL-1β. As for the experimental part: Cells were treated with different concentrations of circumdatin D in the presence or absence of LPS for indicated time. Then, the culture media were collected and centrifuged at 12,000g, 4°C for 20 min. The levels of TNF-α and IL-β in the supernatants were determined by ELISA kits according to the manufacturer's instructions.
For orientation: ELISA stands for enzyme-linked immunosorbent assay.

Data set [4] deals with C. elegans CL4176. The data set can be described thus: Nematode toxicity assay. The data set is classed as in vivo, Caenorhabditis elegans. The following applies: 24 and 48 h, tested dose, Figure S19. As for the experimental part: To eliminate the confounding factor of toxicity in the procedure, CL4176 worms were exposed to increasing concentrations of circumdatin D dissolved in NGM (0, 100, 200, 500 µM) for 24 h and 48h at 16 °C, respectively. Further, nematodes were exposed to 0.4% DMSO as the negative control. The animals were scored as live or death using a Motic dissecting microscope (Motic Inc., LTD., Hong Kong, China). The worms were considered as death if there was no response when gently touched with a platinum wire. Each independent assay included three NGM plates with thirty worms in each one. Toxicity was expressed as a total percentage of worm survival.

Data set [5] has as its system BV-2 cells. The data set can be described thus: Western blot of iNOS and COX-2 in LPS-induced BV-2 cells. Type of data set: cell-based, murine. The following applies: 1 μg/ml LPS, 10, 20, 50 μM, 24 h. How it is done:
(§1) Total cell proteins were lysed using cell extraction buffer containing phenylmethylsulfonyl ﬂuoride and protease inhibitor cocktail. The cytosolic and nuclear extracts were collected using the Nuclear and Cytosolic extraction kit. The protein extracts were separated on SDS-PAGE and transferred to PVDF membranes (Millipore). The membrane was blocked with 5% nonfat milk for 1 h at room temperature, and incubated with indicated primary antibodies overnight at 4°C. After washing, the membrane was incubated with secondary antibodies conjugated to horseradish peroxidase (Proteintech, USA) at room temperature for 1 h. Then, the proteins of interest were visualized utilizing a chemiluminescence (ECL) detection system. The relative optical densities were analyzed using the Image Master™ 2D Elite software.

Data set [6] relates to ERK1/2-JNK1/2-p38 MAPKs. The data set can be described thus: MAPK phosphorylation in LPS-induced BV-2 cells (Western blot). The data set is classed as cell-based, murine. The following applies: 1 μg/ml LPS, 10, 20, 50 μM, 3 h. How it is done: as §1
Data set [7] addresses T1, acetylcholinesterase (AChE) from Electrophorus electrics (Electric eel) (Electrophorus electricus, UniProt O42275).
T1 construct: purchased Sigma Chemical Co. (St Louis, MO, USA)
Put plainly: biochemical. As to conditions: modified Ellman's colorimetric method; mean ± SD (n = 3). The text has this:
Dulbecco's modified Eagle medium (DMEM), α-minimum essential medium (α-MEM) and fetal bovine serum (FBS) were provided by Hyclone (Waltham, USA). 3-(4,5-Dimethylthiazol-2-yl)-2,5-diphenyltetrazolium bromide (MTT), acetylcholinesterase (AChE) from Electrophorus electrics (Electric eel) and lipopolysaccharide (LPS) (Escherichia coli 055: B5) were provided by Sigma Chemical Co. (St Louis, MO, USA). Enzyme-linked immunosorbent assay (ELISA) kits for IL-1β and TNF-α and Griess reagent for nitric oxide (NO) assay kit were provided by ExCell Bio (Shanghai, China). Antibodies for TLR4, MyD88, JNK, p-JNK, p38, p-p38, ERK, p-ERK, IκB, p-IκB, IKK, p-IKK, NF-κB, STAT3、p-STAT3、Jak2, p-Jak2, GAPDH and Histone H3 were purchased from Cell Signaling Technology (Danvers, USA). Antibodies for iNOS and COX-2 were provided by Abcam (Cambridge, UK).
AChE activities in vitro and in vivo were assessed by a modified Ellman's spectrophotometric method ([Szwajgier, 2015]). Briefly, AChE (80 μl) in phosphate buffer (Na2HPO4/NaH2PO4, pH 8.0) and compound (20 μl) diluted in same phosphate buffer were added to 96 microplates as the reaction mixture. The mixture was incubated at 37°C for 30 min before addition of 10 μl 5,5′-dithiobis (2-nitrobenzoic acid) (DTNB) (3 mM) and 10 μl acetylthiocholine iodide (ATCI) (15 mM). After incubation for 20 min, the absorbance was detected at 412 nm using a microplate spectrophotometer (Thermo Scientifics, USA). […] The inhibitory rate of AChE was calculated, and the IC50 values were calculated by GraphPad Prism® 5.0 software (GraphPad Inc., San Diego, USA).
(In general: In Ellman's method for cholinesterases, released thiocholine reacts with DTNB.)

Recombinant AChE, sequence (P22303 32-614): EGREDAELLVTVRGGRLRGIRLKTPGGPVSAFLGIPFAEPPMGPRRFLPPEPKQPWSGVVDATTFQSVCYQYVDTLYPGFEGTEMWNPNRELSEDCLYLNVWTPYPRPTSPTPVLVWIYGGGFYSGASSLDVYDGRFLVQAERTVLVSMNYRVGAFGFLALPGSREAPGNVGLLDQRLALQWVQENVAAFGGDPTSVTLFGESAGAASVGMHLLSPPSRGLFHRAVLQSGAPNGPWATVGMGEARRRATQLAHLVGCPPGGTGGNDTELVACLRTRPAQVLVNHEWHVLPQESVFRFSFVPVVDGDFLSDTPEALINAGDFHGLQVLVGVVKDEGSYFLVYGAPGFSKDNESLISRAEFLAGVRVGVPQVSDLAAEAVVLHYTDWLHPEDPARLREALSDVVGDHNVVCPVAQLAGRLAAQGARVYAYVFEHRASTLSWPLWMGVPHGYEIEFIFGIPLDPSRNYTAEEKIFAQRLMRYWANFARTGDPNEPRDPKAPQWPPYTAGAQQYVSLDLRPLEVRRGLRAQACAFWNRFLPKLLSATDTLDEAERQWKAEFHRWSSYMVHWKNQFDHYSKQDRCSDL
T1 sequence (O42275 24-633): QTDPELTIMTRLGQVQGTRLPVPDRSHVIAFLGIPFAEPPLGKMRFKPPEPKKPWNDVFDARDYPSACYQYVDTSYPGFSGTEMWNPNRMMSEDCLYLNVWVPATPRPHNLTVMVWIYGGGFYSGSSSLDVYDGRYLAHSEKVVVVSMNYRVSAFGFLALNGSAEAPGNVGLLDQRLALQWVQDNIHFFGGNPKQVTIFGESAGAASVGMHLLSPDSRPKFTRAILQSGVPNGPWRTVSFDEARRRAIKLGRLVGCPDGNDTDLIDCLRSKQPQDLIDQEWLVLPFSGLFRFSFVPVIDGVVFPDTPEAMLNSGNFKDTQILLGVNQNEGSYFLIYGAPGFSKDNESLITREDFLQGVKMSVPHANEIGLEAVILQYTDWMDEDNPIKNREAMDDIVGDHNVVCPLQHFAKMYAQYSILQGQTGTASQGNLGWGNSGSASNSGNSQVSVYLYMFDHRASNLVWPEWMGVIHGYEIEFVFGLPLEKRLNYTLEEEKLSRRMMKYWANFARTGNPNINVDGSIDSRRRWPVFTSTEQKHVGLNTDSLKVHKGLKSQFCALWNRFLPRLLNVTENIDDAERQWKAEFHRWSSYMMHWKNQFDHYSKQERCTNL

In general, Kd refers to the concentration at which binding is half-saturated. In general, IC50 refers to the concentration that inhibits the measured activity by half. A high value points to weaker potency. As for `COc1ccc2c(c1)C(=O)N1CCC[C@H]1c1nc3ccc(OC)cc3c(=O)n1-2` [circumdatin D], the “LPS-induced NO production” value in data set [1] is reported as “significant reduction of NO levels”. Besides, the Kd in data set [2] is 1900 nM. Moreover, the “LPS-induced TNF-α and IL-1β production (ELISA)” value in data set [3] is “suppressed LPS-induced TNF-α and IL-1β production”. The “toxicity on CL4176 nematodes (survival)” value in data set [4] is on record as “no toxicity on the normal survival of the nematode”. Further, in data set [5], the “iNOS and COX-2 protein expression” value was “reduced LPS-induced COX-2 and iNOS expression dose-dependently”. Besides, the “MAPK (ERK1/2, JNK1/2, p38) phosphorylation” value in data set [6] was “markedly suppressed the phosphorylation”. In data set [7], the concentration for half-maximal inhibition (IC50) came to 2400 ± 500 nM.
